# Assay results as given in ChEMBL document CHEMBL3885881, “DrugMatrix”.
# Species: Rattus norvegicus
# Assay: DrugMatrix - Regimen: Daily Repeat
# Format: toxicity, organism-based, Sprague-Dawley
# Set-up: regimen Daily Repeat, gender Male, age 6-8 weeks
# Conditions: in vivo, po, route oral GAVAGE, […]; for ABSOLUTE BASOPHIL / ABSOLUTE EOSINOPHIL / ABSOLUTE LYMPHOCYTE / ABSOLUTE MONOCYTE / ABSOLUTE SEGMENTED NEUTROPHIL / BASOPHIL / EOSINOPHIL / ERYTHROCYTE COUNT / HEMATOCRIT / HEMOGLOBIN / LEUKOCYTE COUNT / LYMPHOCYTE / MEAN CORPUSCULAR HEMOGLOBIN / MEAN CORPUSCULAR HEMOGLOBIN CONCENTRATION / MEAN CORPUSCULAR VOLUME / MONOCYTE / NEUTROPHIL / NUCLEATED RED BLOOD CELLS / PLATELET COUNT: tissue Blood; for ALANINE AMINOTRANSFERASE / ALBUMIN / ALKALINE PHOSPHATASE / ASPARTATE AMINOTRANSFERASE / BLOOD UREA NITROGEN / CARBON DIOXIDE / CHLORIDE / CHOLESTEROL / CREATINE PHOSPHOKINASE / CREATININE / GLUCOSE / LACTATE DEHYDROGENASE / LIPASE / PHOSPHORUS / POTASSIUM / SODIUM / TOTAL BILIRUBIN / TOTAL PROTEIN / URIC ACID: tissue Plasma
# [1] = 0 mg/kg, 72 h, dose level Control, time 3 day
# [2] = 0 mg/kg, 120 h, dose level Control, time 5 day
# [3] = 12 mg/kg, 72 h, dose level Low, time 3 day
structure (smiles),measurement,setting,value
CO[C@H]1/C=C/O[C@@]2(C)Oc3c(C)c(O)c4c(O)c(c(/C=N/N5CCN(C6CCCC6)CC5)c(O)c4c3C2=O)NC(=O)/C(C)=C\C=C\[C@H](C)[C@H](O)[C@@H](C)[C@@H](O)[C@@H](C)[C@H](OC(C)=O)[C@@H]1C [RIFAPENTINE],ABSOLUTE BASOPHIL,[1],0 CELLS/uL
same,ABSOLUTE EOSINOPHIL,[1],179.67 CELLS/uL
same,ABSOLUTE LYMPHOCYTE,[1],11440.17 CELLS/uL
same,ABSOLUTE MONOCYTE,[1],128.83 CELLS/uL
same,ABSOLUTE SEGMENTED NEUTROPHIL,[1],1051.33 CELLS/uL
same,BASOPHIL,[1],0%
same,EOSINOPHIL,[1],1.33%
same,ERYTHROCYTE COUNT,[1],5.53 x10E6/uL
same,HEMATOCRIT,[1],34.75%
same,HEMOGLOBIN,[1],12.88 G/DL
same,LEUKOCYTE COUNT,[1],12.8 x10E3/uL
same,LYMPHOCYTE,[1],89.5%
same,MEAN CORPUSCULAR HEMOGLOBIN,[1],23.38 pg
same,MEAN CORPUSCULAR HEMOGLOBIN CONCENTRATION,[1],37.12 G/DL
same,MEAN CORPUSCULAR VOLUME,[1],62.88 fL
same,MONOCYTE,[1],1%
same,NEUTROPHIL,[1],8.17%
same,NUCLEATED RED BLOOD CELLS,[1],0 /100WBC
same,PLATELET COUNT,[1],1292 x10E3/uL
same,ALANINE AMINOTRANSFERASE,[1],58.67 u/L
same,ALBUMIN,[1],4.25 G/DL
same,ALKALINE PHOSPHATASE,[1],437.83 u/L
same,ASPARTATE AMINOTRANSFERASE,[1],85.17 u/L
same,BLOOD UREA NITROGEN,[1],14.17 mg/dL
same,CARBON DIOXIDE,[1],28.67 mmol/L
same,CHLORIDE,[1],102.17 MEQ/L
same,CHOLESTEROL,[1],68.5 mg/dL
same,CREATINE PHOSPHOKINASE,[1],271.83 u/L
same,CREATININE,[1],0.2 mg/dL
same,GLUCOSE,[1],156.67 mg/dL
same,LACTATE DEHYDROGENASE,[1],112.33 u/L
same,LIPASE,[1],9.33 u/L
same,PHOSPHORUS,[1],11.1 mg/dL
same,POTASSIUM,[1],6.46 MEQ/L
same,SODIUM,[1],144.37 MEQ/L
same,TOTAL BILIRUBIN,[1],0.23 mg/dL
same,TOTAL PROTEIN,[1],5.8 G/DL
same,URIC ACID,[1],1.55 mg/dL
same,ABSOLUTE BASOPHIL,[2],0 CELLS/uL
same,ABSOLUTE EOSINOPHIL,[2],87 CELLS/uL
same,ABSOLUTE LYMPHOCYTE,[2],14743.5 CELLS/uL
same,ABSOLUTE MONOCYTE,[2],187 CELLS/uL
same,ABSOLUTE SEGMENTED NEUTROPHIL,[2],1499.17 CELLS/uL
same,BASOPHIL,[2],0%
same,EOSINOPHIL,[2],0.5%
same,ERYTHROCYTE COUNT,[2],5.84 x10E6/uL
same,HEMATOCRIT,[2],36.3%
same,HEMOGLOBIN,[2],13.55 G/DL
same,LEUKOCYTE COUNT,[2],16.52 x10E3/uL
same,LYMPHOCYTE,[2],89.5%
same,MEAN CORPUSCULAR HEMOGLOBIN,[2],23.25 pg
same,MEAN CORPUSCULAR HEMOGLOBIN CONCENTRATION,[2],37.35 G/DL
same,MEAN CORPUSCULAR VOLUME,[2],62.27 fL
same,MONOCYTE,[2],1.17%
same,NEUTROPHIL,[2],8.83%
same,NUCLEATED RED BLOOD CELLS,[2],0.17 /100WBC
same,PLATELET COUNT,[2],1233.5 x10E3/uL
same,ALANINE AMINOTRANSFERASE,[2],62.5 u/L
same,ALBUMIN,[2],4.17 G/DL
same,ALKALINE PHOSPHATASE,[2],464.33 u/L
same,ASPARTATE AMINOTRANSFERASE,[2],99.67 u/L
same,BLOOD UREA NITROGEN,[2],14.33 mg/dL
same,CARBON DIOXIDE,[2],26 mmol/L
same,CHLORIDE,[2],102.33 MEQ/L
same,CHOLESTEROL,[2],60.67 mg/dL
same,CREATINE PHOSPHOKINASE,[2],402.5 u/L
same,CREATININE,[2],0.22 mg/dL
same,GLUCOSE,[2],173.5 mg/dL
same,LACTATE DEHYDROGENASE,[2],518.17 u/L
same,LIPASE,[2],10.83 u/L
same,PHOSPHORUS,[2],11.4 mg/dL
same,POTASSIUM,[2],6.13 MEQ/L
same,SODIUM,[2],142.63 MEQ/L
same,TOTAL BILIRUBIN,[2],0.17 mg/dL
same,TOTAL PROTEIN,[2],6.1 G/DL
same,URIC ACID,[2],1.97 mg/dL
same,ABSOLUTE BASOPHIL,[3],0 CELLS/uL
same,ABSOLUTE EOSINOPHIL,[3],44.67 CELLS/uL
same,ABSOLUTE LYMPHOCYTE,[3],14914 CELLS/uL
same,ABSOLUTE MONOCYTE,[3],225.33 CELLS/uL
same,ABSOLUTE SEGMENTED NEUTROPHIL,[3],1216 CELLS/uL
same,BASOPHIL,[3],0%
same,EOSINOPHIL,[3],0.33%
same,ERYTHROCYTE COUNT,[3],5.83 x10E6/uL
same,HEMATOCRIT,[3],34.83%
same,HEMOGLOBIN,[3],12.73 G/DL
same,LEUKOCYTE COUNT,[3],16.4 x10E3/uL
same,LYMPHOCYTE,[3],91%
same,MEAN CORPUSCULAR HEMOGLOBIN,[3],21.83 pg
same,MEAN CORPUSCULAR HEMOGLOBIN CONCENTRATION,[3],36.57 G/DL
same,MEAN CORPUSCULAR VOLUME,[3],59.7 fL
same,MONOCYTE,[3],1.33%
same,NEUTROPHIL,[3],7.33%
same,NUCLEATED RED BLOOD CELLS,[3],0 /100WBC
same,PLATELET COUNT,[3],1540.67 x10E3/uL
same,ALANINE AMINOTRANSFERASE,[3],75 u/L
same,ALBUMIN,[3],4.13 G/DL
same,ALKALINE PHOSPHATASE,[3],400.33 u/L
same,ASPARTATE AMINOTRANSFERASE,[3],93.33 u/L
same,BLOOD UREA NITROGEN,[3],15 mg/dL
same,CARBON DIOXIDE,[3],28 mmol/L
same,CHLORIDE,[3],102 MEQ/L
same,CHOLESTEROL,[3],69.33 mg/dL
same,CREATINE PHOSPHOKINASE,[3],485.67 u/L
same,CREATININE,[3],0.15 mg/dL
same,GLUCOSE,[3],166.67 mg/dL
same,LACTATE DEHYDROGENASE,[3],138 u/L
same,LIPASE,[3],10 u/L
same,PHOSPHORUS,[3],11.53 mg/dL
same,POTASSIUM,[3],6.47 MEQ/L
same,SODIUM,[3],141.97 MEQ/L
same,TOTAL BILIRUBIN,[3],0.23 mg/dL
same,TOTAL PROTEIN,[3],5.43 G/DL
same,URIC ACID,[3],1.6 mg/dL
